Measurements as given in article PMC8957246, “Synthesis and diverse biological activity profile of triethylammonium isatin-3-hydrazones” (ADMET & DMPK, 2022).
Read-outs that look alike come from different tables or passages of the source. Marks after values point to notes of the source that are not given here.

Legend:
[1] = tested on: Pseudomonas fluorescens EL-2.1; assay: Bactericidal activity, agar diffusion, Ps. fluorescens; type: cell-based; details: Pseudomonas fluorescens, EL2.1, 2 mM/L
Procedure, shortened: (§1)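 Agar diffusion: bacterial lawns on BP agar (GYCa for X. campestris), pH 7.2-7.4, with compound solution (150 μl; stock 2 mmol/l) placed in 6-mm wells. Growth inhibition zone width measured after 36-40 h incubation, bacteria grown at 28°C.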

[2] = tested on: Pectobacterium atrosepticum 1043; assay: Bactericidal activity, agar diffusion, P. atrosepticum; type: cell-based; details: Pectobacterium atrosepticum, 1043, 2 mM/L
Procedure, shortened: as §1

[3] = tested on: activated partial thromboplastin time (intrinsic coagulation pathway); assay: Anticoagulant activity, clotting test APTT; design: species or system human; details: concentration 5×10^–4 g/mL; median (25-75 percentiles)
[4] = tested on: Micrococcus luteus B-109; assay: Bactericidal activity, agar diffusion, M. luteus; type: cell-based; details: Micrococcus luteus, B109, 2 mM/L
Procedure, shortened: as §1

[5] = tested on: Fusarium oxysporum IBPPM 543; assay: Fungicidal activity, radial growth inhibition, F. oxysporum; type: cell-based
Procedure, shortened: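 Compound solutions mixed into molten GPY agar (~60 °C) at various concentrations; plates centre-inoculated with a 5-mm mycelial block from 10-day cultures and incubated at 27 °C until control plates filled (~12 days). Inhibition is the % decrease in colony radial growth versus untreated control; EC50 = 50C/I.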

[6] = 150 μl per well, 36-40 h, read-out: width of the inhibition zone
[7] = read-out: Inhibition zone width (mm), not less

CC[N+](CC)(CC)CC(=O)N/N=C1\C(=O)N(Cc2cc(C(C)(C)C)c(O)c(C(C)(C)C)c2)c2ccccc21 [Compound 3a, 2-(2-(1-(3,5-Di-tert-butyl-4-hydroxybenzyl)-2-oxoindolin-3-ylidene)hydrazinyl)-N,N,N-triethyl-2-oxoethanammonium bromide]
zone of inhibition at 2000 µM [1, 6]: 9 mm
zone of inhibition at 2000 µM [1, 7]: ≥ 9 mm
zone of inhibition at 2000 µM [2, 6]: 8 mm
zone of inhibition at 2000 µM [2, 7]: ≥ 8 mm
APTT, % of control [3]: +5.2 (4.1-7.6) ^*, ^† % of control
zone of inhibition at 2000 µM [4, 6]: 9 mm
zone of inhibition at 2000 µM [4, 7]: ≥ 9 mm
Inhibition value, I (%) ([5]; C 6.02 μg/mL, age of the fungus 3 days): 11%
Inhibition value, I (%) ([5]; C 6.02 μg/mL, age of the fungus 5 days): 4%
Inhibition value, I (%) ([5]; C 6.02 μg/mL, age of the fungus 7 days): 9%
Inhibition value, I (%) ([5]; C 6.02 μg/mL, age of the fungus 9 days): 0%
Inhibition value, I (%) ([5]; C 12.04 μg/mL, age of the fungus 3 days): 14%
Inhibition value, I (%) ([5]; C 12.04 μg/mL, age of the fungus 5 days): 12%
Inhibition value, I (%) ([5]; C 12.04 μg/mL, age of the fungus 7 days): 18%
Inhibition value, I (%) ([5]; C 12.04 μg/mL, age of the fungus 9 days): 3%
Inhibition value, I (%) ([5]; C 24.08 μg/mL, age of the fungus 3 days): 24%
Inhibition value, I (%) ([5]; C 24.08 μg/mL, age of the fungus 5 days): 16%
Inhibition value, I (%) ([5]; C 24.08 μg/mL, age of the fungus 7 days): 27%
Inhibition value, I (%) ([5]; C 24.08 μg/mL, age of the fungus 9 days): 4%
Inhibition value, I (%) ([5]; C 36.12 μg/mL, age of the fungus 3 days): 28%
Inhibition value, I (%) ([5]; C 36.12 μg/mL, age of the fungus 5 days): 24%
Inhibition value, I (%) ([5]; C 36.12 μg/mL, age of the fungus 7 days): 30%
Inhibition value, I (%) ([5]; C 36.12 μg/mL, age of the fungus 9 days): 12%
EC50 ([5]; Fusarium oxysporum, IBPPM543, 168 h, day 7, EC50 = 50C/I, read-out: EC50, μg/mL at day 7): 33.4 µg/mL
